Data published in US20250084039A1, “4-SUBSTITUTED AMINOISOQUINOLINE DERIVATIVES” (Purdue Research Foundation, priority 2016, published 2025).
Where two headings read alike, the source gives them in different places.

Assays:
FLT3 phosphorylation = experiment: Western blot in MV4-11; assay type: cell-based, human
Procedure: Total protein extracts were prepared using RIPA buffer (SIGMA) supplemented with Complete Mini™ protease inhibitor and PHOStop™ phosphatase inhibitors (Roche). […] The membrane was blocked with 5% dry milk in 1×TBS/0.1% Tween 20 (TBST) for at least 1 h at room temperature and incubated with human specific primary antibodies: FLT3, Phospho-FLT3, c-Myc (Cell Signaling Technologies), KRAS (Santa Cruz), or mouse anti-β-actin (SIGMA) overnight at 4° C. The membrane was washed 3 times in TBST and incubated with a horseradish peroxidase-conjugated secondary anti-rabbit or anti-mouse antibody (Cell Signaling Technologies) for 1 h at room temperature. Blots were again washed and the signal was detected with SuperSignal West Femto Chemiluminescent Substrate (Pierce) and exposed to HyBlot CL® autoradiography film (Denville).

HL60 = experiment: Anti-proliferative effects in leukemia panel; assay type: cell-based; conditions: Homo sapiens, HL-60
c-kit = c-kit (Homo sapiens (Human), UniProt P10721); experiment: Reaction Biology HotSpot kinase assay; assay type: biochemical; conditions: 500 nM compound, 100 μM radiolabeled ATP
Chain of c-kit (P10721 26-976): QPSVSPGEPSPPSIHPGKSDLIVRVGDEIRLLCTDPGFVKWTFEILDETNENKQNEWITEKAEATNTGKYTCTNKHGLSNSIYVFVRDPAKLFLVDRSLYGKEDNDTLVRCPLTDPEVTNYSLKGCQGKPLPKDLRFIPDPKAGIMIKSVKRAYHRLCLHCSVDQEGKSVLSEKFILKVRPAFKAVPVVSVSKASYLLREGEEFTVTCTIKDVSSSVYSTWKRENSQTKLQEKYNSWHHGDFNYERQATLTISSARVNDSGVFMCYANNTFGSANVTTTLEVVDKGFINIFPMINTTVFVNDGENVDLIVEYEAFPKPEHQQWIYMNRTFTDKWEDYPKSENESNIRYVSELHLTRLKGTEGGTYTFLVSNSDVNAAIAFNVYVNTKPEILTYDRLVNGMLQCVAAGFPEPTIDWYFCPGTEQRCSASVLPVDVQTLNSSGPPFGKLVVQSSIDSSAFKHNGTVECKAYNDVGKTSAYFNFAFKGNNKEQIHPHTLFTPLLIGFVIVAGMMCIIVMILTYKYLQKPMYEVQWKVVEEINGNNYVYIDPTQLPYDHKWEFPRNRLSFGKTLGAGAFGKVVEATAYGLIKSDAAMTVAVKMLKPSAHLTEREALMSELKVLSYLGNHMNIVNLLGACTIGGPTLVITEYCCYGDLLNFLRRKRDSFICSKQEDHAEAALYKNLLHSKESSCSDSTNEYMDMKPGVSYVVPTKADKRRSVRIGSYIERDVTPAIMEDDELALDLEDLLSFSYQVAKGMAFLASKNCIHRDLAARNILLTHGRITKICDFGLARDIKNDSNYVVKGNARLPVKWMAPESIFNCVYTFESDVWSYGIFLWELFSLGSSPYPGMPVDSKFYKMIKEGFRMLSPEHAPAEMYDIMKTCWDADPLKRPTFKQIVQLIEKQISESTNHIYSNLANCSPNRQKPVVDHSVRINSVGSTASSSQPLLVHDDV
Procedure: (§1) The Reaction Biology Corporation (www.reactionbiology.com, Malvern, PA) HotSpot assay platform was used to measure kinase/inhibitor interactions exactly as previously described. Kinase and substrate were mixed in a buffer containing 20 mM HEPES pH 7.5, 10 mM MgCl2, 1 mM EGTA, 0.02% Brij35, 0.02 mg/mL BSA, 0.1 mM Na3VO4, 2 mM DTT and 1% DMSO. Single-dose of compounds (500 nM) were then added to each reaction mixture. After 20-minute incubation. ATP (Sigma) and [γ-^33P] ATP (Perkin Elmer) were added at a final total concentration of 100 μM for addition 2 hours at room temperature, followed by spotting onto P81 ion exchange cellulose chromatography paper (Whatman, Inc.). […] Percent remaining kinase activity of a vehicle (DMSO) containing kinase reaction was calculated for each kinase/inhibitor pair using Prism 5 (GraphPad).
as §1, with “1” for “DTT”, “incubation,” for “incubation.”

TRKC = TRKC (Homo sapiens (Human), UniProt Q16288); experiment: Reaction Biology HotSpot kinase assay; assay type: biochemical; conditions: 500 nM compound, 100 μM radiolabeled ATP
Procedure: as §1
as §1, with “1” for “DTT”, “incubation,” for “incubation.”

STAT5 phosphorylation = experiment: Western blot in MV4-11; assay type: cell-based, human
Procedure: Effect of HSW630-1 on protein expression was tested in the MV4-11 leukemia cell line. Total protein extracts were prepared using RIPA buffer (SIGMA) supplemented with Complete Mini™ protease inhibitor and PHOStop™ phosphatase inhibitors (Roche). Equal amounts of proteins (up to 25 μg) were separated on 4-12% NuPAGE gels in 1×MOPS or 1×MES buffer (Invitrogen) and transferred onto PVDF membranes (Millipore). The membrane was blocked with 5% dry milk in 1×TBS/0.1% Tween 20 (TBST) for at least 1 h at room temperature and incubated with human specific primary antibodies: FLT3, Phospho-FLT3, c-Myc (Cell Signaling Technologies), KRAS (Santa Cruz), or mouse anti-β-actin (SIGMA) overnight at 4° C. The membrane was washed 3 times in TBST and incubated with a horseradish peroxidase-conjugated secondary anti-rabbit or anti-mouse antibody (Cell Signaling Technologies) for 1 h at room temperature. Blots were again washed and the signal was detected with SuperSignal West Femto Chemiluminescent Substrate (Pierce) and exposed to HyBlot CL® autoradiography film (Denville).
To determine if the phosphorylation of FLT3, SRC kinase and downstream effectors or kinases (such as STAT3 [44], STAT5 [45] and p-38 [46]) could be affected by the compounds. […] The level of SRC kinase increased over time (amount at the 48 h time point is greater than at the 6 and 24 h time points). Unfortunately the bands for the phosphorylated SRC kinase are blurred despite repeated attempts to get clearer bands. […] From the above Western analyses, it is confirmed that the proliferation inhibition of MV4-11 is due to the inhibition of FLT3 signaling axis.

MV4-11 [1] = experiment: Anti-proliferative effects in leukemia panel; assay type: cell-based
Procedure: Molm-14 cells were the kind gift of Dr. Mark Levis from Johns Hopkins University. […] Cell lines were grown and maintained according to ATCC recommendations.
(§2) Cell lines were seeded into 96-well plates the afternoon prior to treatment. Approximately 18 hours later, compounds were semi-serially diluted in dimethyl sulfoxide (DMSO) and then growth medium, and added to cells. Plates were incubated for 72 hours prior to addition of Alamar Blue (Life Technologies. Carlsbad, CA). Plates were read after 4 additional hours of incubation at 37° C. using a Bio-Tek Synergy HT plate reader (Bio-Tek, Winooski. VT). Data was analyzed and graphed using GraphPad Prism Software (Graphpad. La Jolla, CA).

THP-1 = experiment: Anti-proliferative effects in leukemia panel; assay type: cell-based; conditions: Homo sapiens
Procedure: (§3) Molm-14 cells were the kind gift of Dr. Mark Levis from Johns Hopkins University. THP-1, MV4-11, K-562 and MRC-5A cells were purchased from ATCC (ATCC, Manassas, VA). All cell lines were grown in 37° C. with 5% CO2 atmosphere with RPMI 1640 (Life technologies, Carlsbad. CA) supplemented with heat-inactivated 10% (V/V) fetal bovine serum. Cell lines were grown and maintained according to ATCC recommendations.
as §2

MOLM14 [2] = experiment: Anti-proliferative effects in leukemia panel; assay type: cell-based
Procedure: as §3, §2

K-562 = experiment: Anti-proliferative effects in leukemia panel; assay type: cell-based; conditions: Homo sapiens, K562
Procedure: as §3, §2

MV4-11 [3] = experiment: Activity against AML cell line MV4-11 (CellTiter-Blue, 72 h); assay type: cell-based; conditions: Homo sapiens, MV4-11, 72 h; read-out: IC50 against MV4-11/uM
Outline: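 Suspension cells seeded at 4000 per well, left overnight, then exposed to compound from 10 nM to 100 μM for 72 h. Viability by CellTiter-Blue resazurin fluorescence after 4 h (Ex 560, Em 590); IC50 from concentration-response.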

BTK = BTK (Homo sapiens (Human), UniProt Q06187); experiment: Reaction Biology HotSpot kinase assay; assay type: biochemical; conditions: 500 nM compound; read-out: Percentage kinase inhibition BTK
Procedure: as §1
as §1, with “1” for “DTT”, “incubation,” for “incubation.”

MiaPaca-2 = experiment: IC50 proliferation assay (Alamar Blue, 72 h); assay type: cell-based; conditions: Homo sapiens, MIA PaCa-2; read-out: IC50 MiaPaca-2 (pancreatic cell line)
Outline: (§4)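 Cells seeded ~18 h before treatment with semi-serial compound dilutions made in DMSO then growth medium. After 72 h exposure, Alamar Blue added and read following 4 h further at 37 °C; IC50 for proliferation inhibition.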

MV4-11 [4] = experiment: IC50 proliferation assay (Alamar Blue, 72 h); assay type: cell-based; conditions: read-out: IC50 (proliferation inhibition) Cell line - MV4-11
Outline: as §4

HLY-1 = experiment: IC50 proliferation assay (Alamar Blue, 72 h); assay type: cell-based; conditions: read-out: IC50 HLY-1 (lymphoma cell line)
Outline: as §4

RET = RET (Homo sapiens (Human), UniProt P07949); experiment: Reaction Biology HotSpot kinase assay; assay type: biochemical; conditions: 500 nM compound
Chain of RET (P07949 29-1114): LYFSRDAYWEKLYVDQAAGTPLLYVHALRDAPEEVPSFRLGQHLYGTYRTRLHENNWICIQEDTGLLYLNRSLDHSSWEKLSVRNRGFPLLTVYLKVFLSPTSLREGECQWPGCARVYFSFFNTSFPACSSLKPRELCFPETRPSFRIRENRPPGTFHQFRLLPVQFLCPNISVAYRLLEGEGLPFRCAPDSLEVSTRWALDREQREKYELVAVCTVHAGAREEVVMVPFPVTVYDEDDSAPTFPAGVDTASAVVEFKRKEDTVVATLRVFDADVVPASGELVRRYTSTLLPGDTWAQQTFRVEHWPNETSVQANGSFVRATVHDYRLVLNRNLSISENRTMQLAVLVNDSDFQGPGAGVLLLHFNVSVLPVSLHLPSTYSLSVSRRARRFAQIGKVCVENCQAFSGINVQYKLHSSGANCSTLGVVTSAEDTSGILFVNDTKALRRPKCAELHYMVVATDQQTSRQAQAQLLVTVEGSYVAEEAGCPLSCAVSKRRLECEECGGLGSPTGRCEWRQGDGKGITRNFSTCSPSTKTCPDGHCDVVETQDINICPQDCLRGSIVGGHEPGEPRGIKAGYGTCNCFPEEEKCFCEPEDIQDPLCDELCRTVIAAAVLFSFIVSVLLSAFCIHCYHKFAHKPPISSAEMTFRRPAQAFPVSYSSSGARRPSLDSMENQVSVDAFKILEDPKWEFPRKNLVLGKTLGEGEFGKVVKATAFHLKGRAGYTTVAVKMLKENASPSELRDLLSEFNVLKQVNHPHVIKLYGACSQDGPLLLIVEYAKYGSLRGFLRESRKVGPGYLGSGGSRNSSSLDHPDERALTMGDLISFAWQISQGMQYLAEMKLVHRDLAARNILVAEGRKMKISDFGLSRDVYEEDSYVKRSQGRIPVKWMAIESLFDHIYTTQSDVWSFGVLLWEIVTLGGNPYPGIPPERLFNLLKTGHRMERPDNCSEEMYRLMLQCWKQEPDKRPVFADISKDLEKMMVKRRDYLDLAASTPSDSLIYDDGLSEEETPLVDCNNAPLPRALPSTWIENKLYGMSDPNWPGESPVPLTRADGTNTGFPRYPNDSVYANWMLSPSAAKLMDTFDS
Procedure: as §1
as §1, with “1” for “DTT”, “incubation,” for “incubation.”

c-Src = c-Src (Homo sapiens (Human), UniProt P12931); experiment: Reaction Biology HotSpot kinase assay; assay type: biochemical; conditions: 500 nM compound
Procedure: as §1
as §1, with “1” for “DTT”, “incubation,” for “incubation.”

FGFR1 = FGFR1 (Homo sapiens (Human), UniProt P11362); experiment: Reaction Biology HotSpot kinase assay; assay type: biochemical; conditions: 500 nM compound
Chain of FGFR1 (P11362 22-822): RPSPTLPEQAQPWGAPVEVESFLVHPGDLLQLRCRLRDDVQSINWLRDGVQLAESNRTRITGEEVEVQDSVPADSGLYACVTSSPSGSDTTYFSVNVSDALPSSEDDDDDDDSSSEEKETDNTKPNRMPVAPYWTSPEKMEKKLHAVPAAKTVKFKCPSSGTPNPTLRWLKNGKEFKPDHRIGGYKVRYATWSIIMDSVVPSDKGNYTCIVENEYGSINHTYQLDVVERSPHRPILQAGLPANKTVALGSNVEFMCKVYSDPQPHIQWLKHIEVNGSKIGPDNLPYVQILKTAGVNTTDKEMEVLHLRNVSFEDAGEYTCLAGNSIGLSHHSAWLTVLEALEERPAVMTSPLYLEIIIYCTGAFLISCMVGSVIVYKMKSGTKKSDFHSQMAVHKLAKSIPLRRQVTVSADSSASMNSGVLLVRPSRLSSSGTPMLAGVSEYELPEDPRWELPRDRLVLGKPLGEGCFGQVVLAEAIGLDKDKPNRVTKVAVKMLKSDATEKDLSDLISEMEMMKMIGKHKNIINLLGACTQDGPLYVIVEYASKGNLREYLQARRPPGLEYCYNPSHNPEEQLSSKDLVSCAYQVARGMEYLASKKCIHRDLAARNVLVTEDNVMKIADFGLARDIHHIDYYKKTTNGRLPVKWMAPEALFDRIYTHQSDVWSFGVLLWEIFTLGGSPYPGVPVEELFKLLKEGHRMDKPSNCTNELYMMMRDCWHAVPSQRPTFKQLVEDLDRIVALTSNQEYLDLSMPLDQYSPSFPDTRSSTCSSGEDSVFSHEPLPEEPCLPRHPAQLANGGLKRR
Procedure: as §1
as §1, with “1” for “DTT”, “incubation,” for “incubation.”

HCT116 = experiment: Proliferation inhibition at single concentration (CellTiter-Blue); assay type: cell-based; conditions: 1 μM compound
MCF-7 = experiment: as above; assay type: cell-based; conditions: 1 μM compound
HeLa = experiment: as above; assay type: cell-based; conditions: 1 μM compound
MV-4-11 = experiment: as above; assay type: cell-based; conditions: 1 μM compound
FLT3 ITD = FLT3 ITD (Homo sapiens, UniProt P36888); experiment: DiscoverX Kd Elect binding
Chain of FLT3 ITD (P36888 whole entry, looked up, change not shown): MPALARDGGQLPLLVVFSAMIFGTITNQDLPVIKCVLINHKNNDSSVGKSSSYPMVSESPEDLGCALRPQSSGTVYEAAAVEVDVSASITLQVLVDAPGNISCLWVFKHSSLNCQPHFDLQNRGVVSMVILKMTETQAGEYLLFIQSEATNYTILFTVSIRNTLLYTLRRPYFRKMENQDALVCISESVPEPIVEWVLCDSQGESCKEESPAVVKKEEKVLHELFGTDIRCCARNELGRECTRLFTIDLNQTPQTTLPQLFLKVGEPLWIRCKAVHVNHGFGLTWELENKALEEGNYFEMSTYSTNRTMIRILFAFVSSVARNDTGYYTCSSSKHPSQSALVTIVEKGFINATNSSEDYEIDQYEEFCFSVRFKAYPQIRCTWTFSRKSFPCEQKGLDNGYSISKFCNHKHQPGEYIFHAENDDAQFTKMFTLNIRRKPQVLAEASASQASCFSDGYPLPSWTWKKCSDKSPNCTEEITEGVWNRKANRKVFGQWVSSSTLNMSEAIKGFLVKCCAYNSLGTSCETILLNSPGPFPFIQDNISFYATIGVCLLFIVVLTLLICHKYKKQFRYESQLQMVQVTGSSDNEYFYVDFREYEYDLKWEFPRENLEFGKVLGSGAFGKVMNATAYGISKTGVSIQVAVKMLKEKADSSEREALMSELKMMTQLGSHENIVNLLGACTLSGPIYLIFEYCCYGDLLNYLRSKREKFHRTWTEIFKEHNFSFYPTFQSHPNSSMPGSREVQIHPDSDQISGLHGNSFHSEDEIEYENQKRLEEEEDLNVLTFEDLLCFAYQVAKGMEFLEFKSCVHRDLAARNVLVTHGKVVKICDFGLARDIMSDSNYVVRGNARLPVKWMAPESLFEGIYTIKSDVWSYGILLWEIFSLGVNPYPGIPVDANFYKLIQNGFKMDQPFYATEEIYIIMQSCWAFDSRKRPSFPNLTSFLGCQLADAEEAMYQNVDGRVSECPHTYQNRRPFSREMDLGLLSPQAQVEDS
From the text: (§5) Although the current drugs on the market or in clinical trials are relatively successful in killing the AML leukemia cells, they currently are unable to deal with secondary mutations that occur after TKI treatment, such as FLT3 ([…]).

K562 = experiment: IC50 proliferation assay (Alamar Blue, 72 h); assay type: cell-based
FLT3 = FLT3 (Homo sapiens (Human), UniProt P36888); experiment: DiscoverX Kd Elect binding
Chain of FLT3 (P36888 27-993): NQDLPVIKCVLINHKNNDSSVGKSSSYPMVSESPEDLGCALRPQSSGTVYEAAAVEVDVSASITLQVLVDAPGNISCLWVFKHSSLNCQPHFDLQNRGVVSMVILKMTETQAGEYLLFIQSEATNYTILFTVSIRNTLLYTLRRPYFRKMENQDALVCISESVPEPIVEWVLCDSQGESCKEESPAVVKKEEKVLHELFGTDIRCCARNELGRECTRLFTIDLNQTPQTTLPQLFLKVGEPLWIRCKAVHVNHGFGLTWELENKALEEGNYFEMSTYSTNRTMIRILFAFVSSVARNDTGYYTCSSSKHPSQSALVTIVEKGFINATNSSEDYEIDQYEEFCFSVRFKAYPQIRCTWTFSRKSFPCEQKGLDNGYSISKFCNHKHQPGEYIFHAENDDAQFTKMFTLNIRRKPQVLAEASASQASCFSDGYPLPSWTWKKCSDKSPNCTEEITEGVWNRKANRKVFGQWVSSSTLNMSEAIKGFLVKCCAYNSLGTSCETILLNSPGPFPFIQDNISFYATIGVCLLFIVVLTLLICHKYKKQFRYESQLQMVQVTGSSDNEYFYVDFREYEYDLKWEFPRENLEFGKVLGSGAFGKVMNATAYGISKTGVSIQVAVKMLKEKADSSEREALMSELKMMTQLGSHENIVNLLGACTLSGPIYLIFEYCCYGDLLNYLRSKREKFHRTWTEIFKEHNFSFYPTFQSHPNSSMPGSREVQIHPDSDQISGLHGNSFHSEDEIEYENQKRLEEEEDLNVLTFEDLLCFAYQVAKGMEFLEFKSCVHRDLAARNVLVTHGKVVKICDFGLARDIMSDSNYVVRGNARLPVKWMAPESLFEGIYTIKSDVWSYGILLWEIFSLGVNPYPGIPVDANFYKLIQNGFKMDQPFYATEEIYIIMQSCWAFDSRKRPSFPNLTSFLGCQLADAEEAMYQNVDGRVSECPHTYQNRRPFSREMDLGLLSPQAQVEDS
From the text: as §5
HCK is expressed more in human primary leukemic stem cells than in human normal hematopoietic stem cells. […] Other protein kinases such as SYK, BRAF, p38 (p38MAPK), PDGFRα/β, FGFR1, RET, FLT4, Tie2 have also been linked to leukemia. […] (Table 9). The inhibition of the Src-kinase family could be important clinically because these kinases are downstream of FLT3. In the event of FLT3 mutation, the inhibition of the Src-family kinases could still lead to proliferation inhibition.

MV4-11 [5] = experiment: IC50 determination (proliferation assay, CellTiter-Blue); assay type: cell-based
Procedure: (§6) Cell lines were seeded into 96-well plates the afternoon prior to treatment. Approximately 18 hours later, compounds were diluted in dimethyl sulfoxide (DMSO) and added to cells. Plates were incubated for 72 hours and cells viability determined with CellTiter-Blue Cell Viability Assay (Promega, Madison, WI). Plates were read after 4 additional hours of incubation at 37° C. using plate reader (Bio-Tek, Winooski. VT). Data was analyzed and graphed using GraphPad Prism Software (Graphpad. La Jolla, CA). […]

MOLM14 [6] = experiment: as above; assay type: cell-based
Procedure: as §6

FLT3 (ITD, F691L) = FLT3 (ITD, F691L) (Homo sapiens, UniProt P36888, F691L/ITD); experiment: DiscoverX Kd Elect binding; conditions: read-out: Kd FLT3 (ITD, F691L)
Chain of FLT3 (ITD, F691L) (P36888 whole entry, looked up, stated change not applied): as the sequence (P36888 whole entry, looked up, change not shown) above

MV4-11 [7] = experiment: In vivo efficacy, NSG mice injected with MV4-11; conditions: 25 mg/kg, three times per week, NSG mice with MV4-11
Procedure: Method: Six week old female NSG mice were injected intravenously with 1×10^6 logarithmically growing MV4-11 cells expressing luciferase (MV4-11). Luciferase expressing leukemia cells were imaged using the IVIS Xenogen system (Perkin Elmer, Waltham MA). On day of imaging, mice are injected IP with 150 mg/kg luciferin (Perkin Elmer, Waltham, MA), anaesthetized and then placed in imaging chamber. Maximal luminescence is recorded and then averaged among each treatment group. Ten days post cell injection, mice were imaged and then sorted into groups so that leukemic burden was similar and dosing started. Mice were dosed either with vehicle (10% DMSO/10% Tween 20/80% saline) or 25 mg/kg of compounds three times per week for the duration of the experiment. Mice were weighed and observed five days per week and imaged once per week.

NCI H1703 (NSCLC) = experiment: Activity against lung cancer cell line; assay type: cell-based

For `Nc1ncc2ccc(Cl)cc2c1C#Cc1ccc(C2=NCCN2)cc1` [HSM1651, 6-chloro-4-((4-(4,5-dihydro-1H-imidazol-2-yl)phenyl)ethynyl)isoquinolin-3-amine], the “FLT3 phosphorylation (Western)” value (FLT3 phosphorylation) was “reduced”, the IC50 (HL60) was 3.05 µM and the inhibition at 0.5 µM (c-kit) was 83%. For the same compound, the inhibition at 0.5 µM (TRKC) was 64%, the “STAT5 phosphorylation (Western)” value (STAT5 phosphorylation) was “reduced” and the “anti-proliferative activity in words, MV4-11 / AML cell lines” value (MV4-11 [1]) was “good inhibitor”. For the same compound, the IC50 (MV4-11 [1]; Homo sapiens, MV4-11, read-out: Anti-proliferative effects in leukemia panel (μM) MV4-11) was 0.05 ± 0.01 µM, the IC50 (THP-1) was 1.85 µM and the “anti-proliferative activity in words, MOLM-14” value (MOLM14 [2]) was “good inhibitor”. The IC50 (MOLM14 [2]; Homo sapiens, MOLM-14) was 0.11 µM, the IC50 (K-562) was 1.39 µM and the IC50 (MV4-11 [3]) was 0.008 µM.
For `CC1(C)CNC(c2ccc(C#Cc3cc(N)nc4ccccc34)cc2F)=N1` [HSM1856, 4-((4-(4,4-dimethyl-4,5-dihydro-1H-imidazol-2-yl)-3-fluorophenyl)ethynyl)quinolin-2-amine], the inhibition at 0.5 µM (BTK) was 70%, the IC50 (MiaPaca-2) was 400 nM and the IC50 (MV4-11 [4]; Homo sapiens, MV4-11, 72 h) was 25 nM. For the same compound, the IC50 (HLY-1) was 80 nM.
With `Cc1ccc(C(=O)NCC(O)CN(C)C)cc1C#Cc1c(N)ncc2ccc(Cl)cc12` (stereo not drawn) [HSN178] the “Percentage kinase inhibition RET” value (RET) was 0%, the “Percentage kinase inhibition c-Src” value (c-Src) was 1% and the “Percentage kinase inhibition FGFR1” value (FGFR1) was 3%. The “Percent inhibition of proliferation HCT116” value (HCT116) was 97%, the “Percent inhibition of proliferation MCF-7” value (MCF-7) was 100% and the “Percent inhibition of proliferation HeLa” value (HeLa) was 100%. For the same compound, the “Percent inhibition of proliferation MV-4-11” value (MV-4-11) was 98%, the Kd (FLT3 ITD) was 450 nM and the IC50 (K562; 72 h, read-out: IC50 (proliferation inhibition) Cell line - K562) was 1440 nM. For the same compound, the IC50 (K562; Table 18, read-out: Inhibition of proliferation of K562 cell lines (CML)) was 1443 ± 0.21 nM, the IC50 (MV4-11 [4]; 72 h) was 171 nM and the Kd (FLT3) was 53 nM. The IC50 (MV4-11 [5]) was 144 ± 2.6 nM, the “proliferation inhibition in words, MV4-11 / AML” value (MV4-11 [5]) was “only moderate inhibitors” and the IC50 (MOLM14 [6]) was 187 ± 5.5 nM.
With `Cc1ncc(C(=O)Nc2ccc(CN3CCN(C)CC3)c(C(F)(F)F)c2)cc1C#Cc1c(N)ncc2ccc(F)cc12` [HSN431] the Kd (FLT3 (ITD, F691L)) was 57 nM, the “in-vivo efficacy (survival)” value (MV4-11 [7]) was “efficacious” and the Kd (FLT3 ITD) was 4.8 nM. The IC50 (NCI H1703 (NSCLC)) was 247 nM and the IC50 (MV4-11 [5]) was under 1 nM.
